In patent publication US20100280117A1 (Xanodyne Pharmaceuticals, Inc., priority 2009, published 2010):

Tests used:
heavy menstrual bleeding [1] = details: cited from earlier work
[2] = Randomized single-dose 4-way crossover bioequivalence/bioavailability study, fasting; design: species or system human (healthy female volunteers); details: female, human, in vivo, iv
[3] = system: patients diagnosed with menorrhagia; test: Menorrhagia Instrument (MI) validation sub-study, treatment cohort; type: in vivo, human (women)
Description: The MI was evaluated in a sub population of patients enrolled in a clinical trial designed to assess the safety and efficacy of tranexamic acid at an oral dose of 3.9 g administered daily for up to 5 days during each menstrual period. Two groups of patients were used to assess the MI, one group of patients were those diagnosed with menorrhagia and undergoing treatment. The second group was an age matched normal group. The sub-study was designed: to collect sufficient quantitative data to support the construct-related validation of the MI measures; to collect sufficient quantitative data to support the assessment of meaningful/important change in blood loss to the women; to conduct a test/retest evaluation of the instrument, and to address the reliability of the MI measures.
A total of 262 women completed the MI. […] The MI measures 1-5 were administered at baseline and at the subsequent first and second non-treatment periods for the subjects in the normal cohort The MI measure 6 was administered and data collected, at Month 1 and Month 2. The Ruta Menorrhagia Questionnaire, SF-36 Health Survey and the MI were completed by the subject before visit procedures were performed. A subset of at least 50 subjects were asked to return to the study site 7 to 10 days after the baseline Visit but before the next menstrual period starts to complete the MI a second time.
A total of 177 patients were enrolled into the sub-study. […] The 149 patients remaining were intended to be age matched. The majority of patients in the study were in their late 30's or early 40's. Because of the difficulty of enrolling sufficient numbers of women with normal menstrual periods in this age bracket 18 evaluable patients were not age matched. A total of 131 evaluable patients were age matched. A sub-set of 80 evaluable patients participated in the test/retest segment of the validation. Of these patients 11 were evaluable but not age matched. Data from all 80 patients were used for statistical evaluation of the test/re-test correlations.
The following Measures were summarized and statistically analyzed: • MI measure1—Blood Loss Rating • MI measure 2—Limitation of Work Outside or Inside the Home • MI measure 3—Limitation of Physical Activities • MI measure 4—Limitation of Social or Leisure Activities • MI measure 6/6a/6b—Menstrual Blood Loss During Last Period • MI measure 6c—Meaningfulness of Change in Menstrual Blood Loss
The MI consisted of 4 individual measures (1-4) that were analyzed separately for validation. No summative scale was derived. […] Measures 6, 6a and 6b dealt with menstrual blood loss relative to the previous menstrual period. The answers to the measures in the subparts of measure 6, were combined to produce a 15 point rating scale. The scale values range from −7 to +7 with −7 representing a very great deal worse menstrual blood loss than the previous period, and +7 representing a very great deal better menstrual blood loss than the previous period. The midpoint (0) represents the perception of about the same menstrual blood loss as the previous period.
The ability to detect change required that values for the item or instrument change when the concept it measures changed. In order to measure the MI items ability to detect change, longitudinal data were evaluated focusing primarily on the changes from baseline to month 1. Differences in proportions and comparisons between treatment and normal groups were compared using chi-square statistics (the Stuart-Maxwell test testing marginal homogeneity for all categories simultaneously). […] The Cohen Effect Size was computed by taking the mean change in measure score (baseline to month 1) and dividing that by the standard deviation of mean baseline score.^2 ^2 Cohen, J. J. (1988). Statistical power analysis for the behavioral sciences (p. 8). Erlbaum: Hillsdale, N.J.

women with menorrhagia [4] = test: Example VII double-blind placebo-controlled clinical study, three treated menstrual periods; details: for proportion of responders (reduction in MBL and meaningful improvement, MI measure 6c): after first treated cycle, p<0.0001 vs placebo
Description: (§1) This was a multi-center, double-blind, placebo-controlled, parallel-group study.
The primary objective of the study was to determine the efficacy of a 1.95 gm/day of tranexamic acid (650 mg orally three times daily, TID) and 3.9 gm/day of tranexamic acid (1.3 gm orally three times daily, TID) administered during menstruation for up to 5 days (maximum of 15 doses) to reduce menstrual blood loss in women with objective evidence of heavy menstrual bleeding.
The secondary objective of the study was to determine the improvement with administration of 1.95 gm/day or 3.9 gm/day of tranexamic acid in women with heavy menstrual bleeding in their symptoms including, Limitation in Social Leisure Activities (LSLA) and Limitation in Physical Activities (LPA) scores from the Menorrhagia Instrument Measures (FIG. 1). Further the objective was to determine the safety of the 1.95 gm/day and 3.9 gm/day of the modified release tranexamic acid formulation administered during menstruation.
All periods were evaluated for the secondary endpoints, and for safety of tranexamic acid at an oral dose of 1.3 gm or placebo administered three (3) times daily for up to five consecutive (5) days (maximum of 15 doses) during menstruation.
Menstrual blood loss (MBL) was assessed during the entire menstrual period by the alkaline hematin test (AHT) method. The Menorrhagia Instrument Measures (FIG. 1) were also administered immediately after each menstrual period under investigation. For the Primary Endpoint, the objective reduction in menstrual blood loss (MBL) during the entire menstrual period as assessed by the AHT Method was assessed.
For the Secondary Endpoints, the scores for Limitation in Social Leisure Activities (LSLA) and the scores for Limitation in Physical Activities (LPA) from the Menorrhagia Instrument Measures (MI), measures #4 and #3, respectively) were assessed.
For the Secondary Endpoints the data collected included at least; Menstrual Blood Loss (MBL) assessment score (MI measure 1), Limitation in Work Outside or Inside the Home (LWH) score (MI item 2), and subject assessment of meaningfulness score from the MI (measure 6) (used for the MBL responder analysis).
(§2) The efficacy results were based on the modified ITT (mITT) populations.

heavy menstrual bleeding [5] = details: open label uncontrolled, 849 patients; cited from earlier work
women with menorrhagia [6] = test: Example VIII double-blind placebo-controlled clinical study, six treated menstrual periods
Description: as §1
Menstrual blood loss (MBL) was assessed during the entire menstrual period by the alkaline hematin test (AHT) method. Measures from the Menorrhagia Instrument (FIG. 1) were also administered immediately after each menstrual period under investigation. Subjects reported large stains exceeding the capacity of sanitary protection (and other patient reported outcome [PRO] items) during the menstrual period in daily diaries.
For the Primary Endpoint, the objective reduction in menstrual blood loss (MBL) during the entire menstrual period as assessed by the AHT Method was assessed.
For the Secondary Endpoints, the Limitation in Social Leisure Activities (LSLA) and the Limitation in Physical Activities (LPA) scores from the Menorrhagia Instrument (MI measures #4 and #3, respectively) and the total number of large stains responder analysis during the menstrual period from subject diaries were assessed.
For the Secondary Endpoints, assessment of the following were included, Menstrual Blood Loss (MBL) assessment score (MI measure #1), Limitation in Work Outside or Inside the Home (LWH) score (MI measure #2), and subject assessment of meaningfulness score from the MI (Measure #6) (used for the MBL responder analysis).
as §2

[7] = treatment group, 3.9 g daily, score 1-5, n 126
[8] = treatment group, baseline to month 1
[9] = treatment group, Cohen effect size
[10] = women on treatment who reported a meaningful improvement
[11] = 3.9 g/day compared with placebo

NC[C@H]1CC[C@H](C(=O)O)CC1 [tranexamic acid]
efficacy in the treatment of HMB (heavy menstrual bleeding [1]; doses of ˜4 g/day (typically 1 g every 6 hours), immediate-release): effective
side effects (heavy menstrual bleeding [1]; doses of ˜4 g/day (typically 1 g every 6 hours)): few side effects
reduction of heavy menstrual bleeding (heavy menstrual bleeding [1]; research from European countries): 40-50%
clearance [2]: 137 mL/min
half-life [2]: 10.2 h
calculated effect size, range over the four MI items ([3]; treatment group): −0.9 to −1.2
mean change in response from baseline to month 1, range over the four MI items ([3]; treatment group): −0.76 to −1.16
MI Item 1 self-perceived blood loss, Month 1 mean ([3]; treatment group, 3.9 g daily oral up to 5 days, score 1-4, n 126): 2.49
MI Item 2 limit you in your work, Month 1 mean [3, 7]: 2.12
MI Item 3 limit you in your physical activities, Month 1 mean [3, 7]: 2.13
MI Item 4 limit you in your social/leisure activities, Month 1 mean [3, 7]: 2.00
MI Item 1 self-perceived blood loss, mean change [3, 8]: −0.76
MI Item 2 limit you in your work, mean change [3, 8]: −0.93
MI Item 3 limit you in your physical activities, mean change [3, 8]: −1.16
MI Item 4 limit you in your social/leisure activities, mean change [3, 8]: −1.06
women on treatment who reported a meaningful improvement ([3]; treatment group, month 1, MI measure 6/6c): 78.6%
MI Item 2 limit you in your work, Effect Size [3, 9]: −0.939
MI Item 3 limit you in your physical activities, Effect Size [3, 9]: −1.221
MI Item 4 limit you in your social/leisure activities, Effect Size [3, 9]: −1.000
MI Item 1 self-perceived blood loss, Effect Size ([3]; treatment group, Cohen effect size, mean change / SD of baseline): −1.226
improvement in MI item 3 (physical activities) [3, 10]: 1.29
improvement in MI item 4 (social/leisure activities) [3, 10]: 1.17
clinical relevance of mean reduction in menstrual blood loss (criteria: >50 mL; at least 36 mL meaningful) (women with menorrhagia [4]; 1.9 and 3.9 g/day): met both criteria for a clinically meaningful result
proportion of responders (reduction in MBL and meaningful improvement, MI measure 6c) (women with menorrhagia [4]; 1.95 g/day): 58.3%
LWH (MI measure 2) (women with menorrhagia [4]; [11]): significantly reduced
subjects' assessment of MBL (MI item 1) (women with menorrhagia [4]; [11]): significantly reduced
proportion of responders (reduction in MBL and meaningful improvement, MI measure 6c) (women with menorrhagia [4]; 3.9 g/day): 71.0%
mean LPA score, change from baseline (women with menorrhagia [4]; Limitation in Physical Activities, MI measure 3): Significant treatment-related reductions
mean LSLA score, change from baseline (women with menorrhagia [4]; Limitation in Social Leisure Activities, MI measure 4): Significant treatment-related reductions
women satisfied with the treatment (heavy menstrual bleeding [5]): 80%
LWH (MI measure #2) (women with menorrhagia [6]; [11]): significantly reduced
subjects' assessment of MBL (MI measure #1) (women with menorrhagia [6]; [11]): significantly reduced
mean LPA score, change from baseline (women with menorrhagia [6]; 3.9 g/day, MI measure 3): significant treatment-related reductions
mean LSLA score, change from baseline (women with menorrhagia [6]; 3.9 g/day, MI measure 4): significant treatment-related reductions
proportion of responders (reduction in MBL and meaningful improvement, MI measure #6c) (women with menorrhagia [6]; 3.9 g/day, after first treated cycle, p<0.0001 vs placebo): 65.4%
regression slope of MBL response over six menstrual cycles (women with menorrhagia [6]; 3.9 g/day, p=0.615): −0.90 mL/cycle
